biological target: T1, wild-type human ALK (cytoplasmic domain, amino acids 1058-1620, N-terminal GST fusion) (Homo sapiens, UniProt Q9UM73); experiment: ALK Inhibition in Enzyme Assay (Lance TR-FRET kinase assay); type: biochemical
T1 construct: The cytoplasmic domain (amino acids 1058-1620) of wild-type human ALK; GST (N); made in house; host or cells: SF9 insect cells
Description: ALK Inhibition in Enzyme Assay
Kinase activity of the purified protein was assessed using a Lance® TR-FRET assay. […] The reaction was allowed to proceed for 90 minutes at room temperature and was then terminated with 20 mM EDTA in 50 mM Tris (pH 7.5), 100 mM NaCl, 0.05% BSA, and 0.1% Tween-20. Phosphorylation of the peptide substrate was detected using the Lance® detection reagents streptavidin-allophycocyanin (SA-APC) and Eu-W1024 anti-phosphotyrosine antibody (PT66) from Perkin Elmer Life Sciences (Waltham, Mass.). The plates were read on a RUBY star plate reader (BMG LABTECH, Cary, N.C.) with an excitation wavelength of 320 nm.

T1 sequence (Q9UM73 1058-1620): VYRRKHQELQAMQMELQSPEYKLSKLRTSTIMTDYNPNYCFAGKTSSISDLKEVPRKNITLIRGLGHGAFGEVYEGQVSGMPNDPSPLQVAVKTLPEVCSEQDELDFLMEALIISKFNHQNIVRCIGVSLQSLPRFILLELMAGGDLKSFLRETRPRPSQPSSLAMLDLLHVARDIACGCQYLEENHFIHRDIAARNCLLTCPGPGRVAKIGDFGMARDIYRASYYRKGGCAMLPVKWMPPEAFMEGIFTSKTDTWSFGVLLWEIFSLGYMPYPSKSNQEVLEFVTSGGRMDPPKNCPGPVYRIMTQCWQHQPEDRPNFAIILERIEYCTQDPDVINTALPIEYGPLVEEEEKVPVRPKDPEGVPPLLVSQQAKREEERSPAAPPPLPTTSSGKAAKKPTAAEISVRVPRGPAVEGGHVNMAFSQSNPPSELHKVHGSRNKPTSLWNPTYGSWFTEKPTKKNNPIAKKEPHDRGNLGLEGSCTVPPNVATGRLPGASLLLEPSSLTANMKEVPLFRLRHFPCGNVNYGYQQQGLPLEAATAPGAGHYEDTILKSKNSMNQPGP

IC50 [µM] | SMILES
1 to 5 | C[C@H]1CN(C(=O)[C@H]2CC[C@@H](n3/c(=N/C(=O)c4ccc(F)cc4)[nH]c4cnc(OCCN5CCCCC5)cc43)CC2)CCN1C(=O)OC(C)(C)C [Example 60, (S)-tert-Butyl 4-(cis-4-((E)-2-(4-fluorobenzoylimino)-6-(2-(piperidin-1-yl)ethoxy)-2,3-dihydro-1H-imidazo[4,5-c]pyridin-1-yl)cyclohexanecarbonyl)-2-methylpiperazine-1-carboxylate]
0.05 to 0.1 | CC(C)CCNC(=O)[C@H]1CC[C@@H](n2/c(=N/C(=O)c3ccc(F)cc3)[nH]c3ccc(CN4CCCCC4)cc32)CC1 [Example 40, (E)-4-Fluoro-N-(1-(cis-4-(isopentylcarbamoyl)cyclohexyl)-6-(piperidin-1-ylmethyl)-1H-benzo[d]imidazol-2(3H)-ylidene)benzamide]
1 to 5 | CN(CC(=O)N1CCC(n2/c(=N/C(=O)c3ccccc3)[nH]c3cnc(OCCN4CCCCC4)cc32)CC1)C(=O)OC(C)(C)C [Example 76, (E)-tert-Butyl 2-(4-(2-(benzoylimino)-6-(2-(piperidin-1-yl)ethoxy)-2,3-dihydro-1H-imidazo[4,5-c]pyridin-1-yl)piperidin-1-yl)-2-oxoethyl(methyl)carbamate]
< 0.05 | C[C@H](CO)NC(=O)[C@H]1CC[C@@H](n2/c(=N/C(=O)c3ccc(F)cc3)[nH]c3ccc(CN4CCOCC4)cc32)CC1 [Example 200, (E)-4-Fluoro-N-(1-(cis-4-((R)-1-hydroxypropan-2-ylcarbamoyl)cyclohexyl)-6-(morpholinomethyl)-1H-benzo[d]imidazol-2(3H)-ylidene)benzamide]
< 0.05 | CC(C)NC(=O)[C@H]1CC[C@@H](n2/c(=N/C(=O)c3ccc(F)cc3)[nH]c3cnc(OCCO)cc32)CC1 [Example 127, (E)-4-Fluoro-N-(6-(2-hydroxyethoxy)-1-(cis-4-(isopropylcarbamoyl)cyclohexyl)-1H-imidazo[4,5-c]pyridin-2(3H)-ylidene)benzamide]
0.05 to 0.1 | CC(=O)N[C@H]1CC[C@H](n2/c(=N/C(=O)c3ccc(F)cc3)[nH]c3ccc(CN4CCC(C(C)(C)O)CC4)cc32)CC1 [Example 229, (E)-N-(1-(trans-4-Acetamidocyclohexyl)-6-((4-(2-hydroxypropan-2-yl)piperidin-1-yl)methyl)-1H-benzo[d]imidazol-2(3H)-ylidene)-4-fluorobenzamide]
0.1 to 1 | COC(=O)[C@H]1CC[C@@H](n2/c(=N/C(=O)c3ccccc3)[nH]c3cnccc32)CC1 [Example 1, cis-Methyl 4-((E)-2-(benzoylimino)-2,3-dihydro-1H-imidazo[4,5-c]pyridin-1-yl)cyclohexanecarboxylate]
< 0.05 | CC(C)NC(=O)[C@H]1CC[C@@H](n2/c(=N/C(=O)c3ccc(F)cc3)[nH]c3ccc(CN4CCN(CC(C)(C)O)CC4)cc32)CC1 [Example 185, (E)-4-Fluoro-N-(6-((4-(2-hydroxy-2-methylpropyl)piperazin-1-yl)methyl)-1-(cis-4-(isopropylcarbamoyl)cyclohexyl)-1H-benzo[d]imidazol-2(3H)-ylidene)benzamide]
< 0.05 | CC(C)NC(=O)[C@H]1CC[C@@H](n2/c(=N/C(=O)c3ccc(F)cc3)[nH]c3ccc(CN4CCC(C(=O)N5CCOCC5)CC4)cc32)CC1 [Example 182, (E)-4-Fluoro-N-(1-(cis-4-(isopropylcarbamoyl)cyclohexyl)-6-((4-(morpholine-4-carbonyl)piperidin-1-yl)methyl)-1H-benzo[d]imidazol-2(3H)-ylidene)benzamide]
1 to 5 | O=C(/N=c1\[nH]c2cnc(OCCN3CCCCC3)cc2n1[C@H]1CC[C@@H](C(=O)O)CC1)c1ccccc1 [Example 25, cis-4-((E)-2-(Benzoylimino)-6-(2-(piperidin-1-yl)ethoxy)-2,3-dihydro-1H-imidazo[4,5-c]pyridin-1-yl)cyclohexanecarboxylic acid]
